Experimental data published in ChEMBL document CHEMBL1126895, “Aminoacyl analogs of chloramphenicol: examination of the kinetics of inhibition of peptide bond formation” (J Med Chem, 1993).

What follows are compounds tested on Escherichia coli (assay: Tested for inhibition of puromycin reaction and reported as equilibrium constant derived from primary and secondary kinetic plots for the inhibition of peptide bond formation).
Assay type: functional

| SMILES | Ki [nM] |
| --- | --- |
| NC(Cc1ccccc1)C(=O)NCC(=O)NC(CO)C(O)c1ccc([N+](=O)[O-])cc1 (stereo unspecified) | 1500 |
| NC(Cc1ccccc1)C(=O)NC(CO)C(O)c1ccc([N+](=O)[O-])cc1 (stereo unspecified) | 18000 |
| NCC(=O)NC(CO)C(O)c1ccc([N+](=O)[O-])cc1 (stereo unspecified) | 5500 |
| O=C(N[C@H](CO)[C@H](O)c1ccc([N+](=O)[O-])cc1)C(Cl)Cl [CHLORAMPHENICOL] | 700 |
| NS(=O)(=O)c1ccc([C@@H](O)[C@@H](CO)NC(=O)C(Cl)Cl)cc1 [TEVENEL] | 1700 |
| CS(=O)(=O)c1ccc([C@@H](O)[C@@H](CO)NC(=O)C(Cl)Cl)cc1 [THIAMPHENICOL] | 400 |
